Measurements taken from the NIST ThermoML archive (doi:10.1016/j.tca.2016.09.005).

Assay: xn = mol fraction of the nth substance listed
Conditions: 100 kPa, Liquid; for speed of sound: Frequency=3 MHz, Sing-around technique in a fixed-path interferometer; for mass density: Vibrating tube method

OCCCO [propan-1,3-diol] + O
Conditions | mass density, 283.15 K [kg/m3] | mass density, 293.15 K [kg/m3] | mass density, 303.15 K [kg/m3] | mass density, 313.15 K [kg/m3] | speed of sound, 283.15 K [m/s] | speed of sound, 293.15 K [m/s] | speed of sound, 303.15 K [m/s] | speed of sound, 313.15 K [m/s]
x2 = 0 | 1058.85 | 1052.61 | 1046.36 | 1040.07 | 1659.5 | 1636.3 | 1613.6 | 1591.1
x2 = 0.1022 | 1059.27 | 1053.04 | 1046.79 | 1040.48 | 1672.9 | 1650.1 | 1627.2 | 1605
x2 = 0.201 | 1059.47 | 1053.26 | 1047.01 | 1040.68 | 1686.6 | 1664 | 1641.4 | 1618.9
x2 = 0.2987 | 1059.49 | 1053.3 | 1047.05 | 1040.7 | 1702 | 1679.4 | 1656.8 | 1634.1
x2 = 0.3998 | 1059.07 | 1052.91 | 1046.67 | 1040.3 | 1717.3 | 1695.2 | 1672.8 | 1650.2
x2 = 0.4997 | 1057.91 | 1051.82 | 1045.61 | 1039.25 | 1732 | 1710.5 | 1688.7 | 1666.4
x2 = 0.5997 | 1055.48 | 1049.54 | 1043.42 | 1037.1 | 1742.7 | 1722.7 | 1701.9 | 1680.5
x2 = 0.6999 | 1050.47 | 1044.85 | 1039.01 | 1032.92 | 1742 | 1725.1 | 1707.1 | 1688.1
x2 = 0.7999 | 1041.86 | 1036.89 | 1031.59 | 1025.94 | 1718.2 | 1707.4 | 1695 | 1680.9
x2 = 0.8997 | 1025.27 | 1021.75 | 1017.64 | 1012.95 | 1637.8 | 1641.2 | 1641.6 | 1639

OCCCO [propan-1,3-diol] + CO
Conditions | mass density, 283.15 K [kg/m3] | mass density, 293.15 K [kg/m3] | mass density, 303.15 K [kg/m3] | mass density, 313.15 K [kg/m3] | speed of sound, 283.15 K [m/s] | speed of sound, 293.15 K [m/s] | speed of sound, 303.15 K [m/s] | speed of sound, 313.15 K [m/s]
x2 = 0 | 1058.85 | 1052.61 | 1046.36 | 1040.07 | 1659.5 | 1636.3 | 1613.6 | 1591.1
x2 = 0.05 | 1052.58 | 1046.29 | 1039.98 | 1033.62 | 1645.8 | 1622.5 | 1599.5 | 1576.8
x2 = 0.0996 | 1045.92 | 1039.56 | 1033.18 | 1026.76 | 1629.2 | 1605.8 | 1582.6 | 1559.7
x2 = 0.1503 | 1038.75 | 1032.32 | 1025.88 | 1019.37 | 1613.8 | 1590.1 | 1566.8 | 1543.7
x2 = 0.2 | 1031.38 | 1024.87 | 1018.34 | 1011.73 | 1596.8 | 1572.8 | 1549.2 | 1525.8
x2 = 0.2502 | 1023.44 | 1016.87 | 1010.26 | 1003.55 | 1578.8 | 1554.7 | 1530.8 | 1507.1
x2 = 0.2998 | 1015.08 | 1008.41 | 1001.72 | 994.98 | 1560.7 | 1536.1 | 1511.9 | 1487.9
x2 = 0.3491 | 1006.18 | 999.42 | 992.64 | 985.81 | 1540.2 | 1515.4 | 1490.9 | 1466.6
x2 = 0.3998 | 996.52 | 989.65 | 982.76 | 975.82 | 1519.5 | 1494.2 | 1469.3 | 1444.7
x2 = 0.4497 | 986.31 | 979.34 | 972.34 | 965.29 | 1497 | 1471.6 | 1446.3 | 1421.4
x2 = 0.5 | 975.38 | 968.29 | 961.17 | 953.99 | 1474 | 1448 | 1422.3 | 1397
x2 = 0.5501 | 963.77 | 956.54 | 949.29 | 941.97 | 1450.2 | 1423.8 | 1397.7 | 1371.9
x2 = 0.5994 | 951.07 | 943.69 | 936.28 | 928.82 | 1423.3 | 1396.4 | 1369.7 | 1343.4
x2 = 0.6501 | 936.86 | 929.32 | 921.74 | 914.15 | 1394.9 | 1367.3 | 1340.1 | 1313.3
x2 = 0.6998 | 922.43 | 914.7 | 906.94 | 899.12 | 1366.9 | 1338.6 | 1310.7 | 1283.3
x2 = 0.7499 | 906.27 | 898.33 | 890.37 | 882.34 | 1336 | 1307.1 | 1278.5 | 1250.5
x2 = 0.8 | 889.44 | 881.29 | 873.11 | 864.86 | 1305 | 1275.3 | 1246.1 | 1217.4
x2 = 0.8501 | 869.9 | 861.5 | 853.06 | 844.55 | 1269.1 | 1238.8 | 1208.7 | 1179.2
x2 = 0.9 | 849.27 | 840.58 | 831.86 | 823.05 | 1233.7 | 1202.3 | 1171.3 | 1140.9
x2 = 0.9501 | 826.76 | 817.77 | 808.72 | 799.59 | 1196 | 1164 | 1132.1 | 1100.8
